From patent US12558428B2, “Heterobifunctional compounds and their use in treating disease” (Halda Therapeutics OpCo, Inc., priority 2024, dated 2026) come the findings set out here.

As a reminder, the GI50 is the concentration giving 50% growth inhibition.

Holding throughout (assay type): cell-based
Test [1] relates to T-Rex 293 cells having increased expression of estrogen receptor alpha protein. As to the kind of experiment: Cellular growth inhibition assay, T-Rex 293 cells, (+) doxycycline. Particulars: T-REx-293, 72 h, Table 7-A; T-Rex 293 cells with doxycycline (increased ERα expression); 72 hours; CellTiter-Glo; read-out: (+) Dox GI50. The gist of the method:
(§1)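 Growth of a doxycycline-inducible ERα T-Rex 293 clone, induced or not with 3 ng/mL doxycycline, was followed for 72 h with test compound in hormone-depleted medium. CellTiter-Glo luminescence gave GI50.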
On the technique in general: In ATP-based viability assays light output follows the ATP content of the culture.

Test [2] concerns T-Rex 293 cells lacking increased expression of estrogen receptor alpha protein. The test is described as follows: Cellular growth inhibition assay, T-Rex 293 cells, (−) doxycycline. Particulars: T-REx-293, 72 h, Table 7-A; T-Rex 293 cells without doxycycline (lacking increased ERα expression); 72 hours; CellTiter-Glo; read-out: (−) Dox GI50. A digest of the protocol: as §1
The test system of test [3] is MCF7 cells (ATCC #HTB-22). As to the kind of experiment: Cellular growth inhibition assay, MCF7 cells purchased from ATCC. The settings on record: Homo sapiens, MCF7, 144 h, Table 8-A; MCF7 cells purchased from ATCC; six days; CellTiter-Glo; read-out: GI50. The gist of the method:
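GI50 values come from a four-parameter fit of CellTiter-Glo 2.0 luminescence after six days of compound exposure at 37° C. Seeding density depended on the source: 225 cells/well for ECACC MCF7, 1,500 for ATCC. Medium was RPMI 1640 with 10% FBS and 0.2 U/ml insulin.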

Some results are limits rather than exact numbers.

On to `Cc1sc2c(c1C)C(c1ccc(C3CN(CC4CCN(c5ccc([C@@H]6c7ccc(O)cc7CC[C@@H]6c6ccccc6)cc5)CC4)C3)cc1)=N[C@@H](C)c1nnc(C)n1-2` [III-141], for which the figures for the GI50 in test [1], in test [2] and in test [3] were 50 to 500 nM, 500 to 2500 nM and 50 to 500 nM, respectively.

Take `Cc1sc2c(c1C)C(c1ccc(C3CN(C(=O)C4CCN(c5ccc([C@@H]6c7ccc(O)cc7CC[C@@H]6c6ccccc6)cc5)CC4)C3)cc1)=N[C@@H](C)c1nnc(C)n1-2` [III-142]: the GI50 in test [1], in test [2] and in test [3] was 50 to 500 nM in each case.

For the compound `Cc1sc2c(c1C)C(c1ccc(N3CCC(O)(CN4CCN(c5ccc([C@@H]6c7ccc(O)cc7CC[C@@H]6c6ccccc6)cc5)CC4)CC3)cc1)=N[C@@H](Cc1ncco1)c1nnc(C)n1-2` [III-143], the GI50 in test [1], in test [2] and in test [3] was greater than 2500 nM in each case.

In the case of `Cc1sc2c(c1C)C(c1ccc(N3CCC(F)(CN4CCC(c5ccc([C@@H]6c7ccc(O)cc7CC[C@@H]6c6ccccc6)cc5)CC4)CC3)cc1)=N[C@@H](C)c1nnc(C)n1-2` [III-144], the results for the GI50 in test [1], in test [2] and in test [3] were 50 to 500 nM, greater than 2500 nM and 500 to 2500 nM, respectively.

With `Cc1sc2c(c1C)C(c1ccc(N3CCC(C)(CN4CCC(c5ccc([C@@H]6c7ccc(O)cc7CC[C@@H]6c6ccccc6)cc5)CC4)CC3)cc1)=N[C@@H](C)c1nnc(C)n1-2` [III-145], the GI50 in test [1] lay in the range of 500 to 2500 nM; in test [2], 500 to 2500 nM; in test [3] it was 50 to 500 nM.

In the case of `Cc1sc2c(c1C)C(c1ccc(N3CC(CN4CCN(CC5CN(c6ccc([C@@H]7c8ccc(O)cc8CC[C@@H]7c7ccccc7)cc6)C5)CC4)C3)cc1)=N[C@H](C)c1nnc(C)n1-2` [III-146], the GI50 was 500 to 2500 nM in test [1], 500 to 2500 nM in test [2] and less than 50 nM in test [3].

For `Cc1sc2c(c1C)C(c1ccc(N3CC(CN4CCN(CC5CN(c6ccc([C@H]7c8ccc(O)cc8CC[C@H]7c7ccccc7)cc6)C5)CC4)C3)cc1)=N[C@@H](C)c1nnc(C)n1-2` [III-147], the GI50 in test [1], in test [2] and in test [3] was 50 to 500 nM throughout.

For `Cc1sc2c(c1C)C(c1ccc(N3CC(CN4CCC(c5ccc([C@@H]6c7ccc(O)cc7CC[C@@H]6c6ccccc6)cc5)CC4)C3)cc1)=N[C@@H](C)c1nnc(C)n1-2` [III-148], the GI50 in test [1] is less than 50 nM; in test [2], 500 to 2500 nM; in test [3], less than 50 nM.

Consider `Cc1sc2c(c1C)C(c1ccc(N3CCC(C(=O)N4CCN(c5ccc([C@@H]6c7ccc(O)cc7CC[C@@H]6c6ccccc6)cc5)CC4)CC3)cc1)=N[C@@H](Cc1ncco1)c1nnc(C)n1-2` [III-149], for which the concentration for 50% growth inhibition (GI50) in test [1] is less than 50 nM; in test [2] it was 50 to 500 nM; in test [3], less than 50 nM.

For the compound `Cc1sc2c(c1C)C(c1ccc(N3CCC(C#N)(CN4CCN(c5ccc([C@@H]6c7ccc(O)cc7CC[C@@H]6c6ccccc6)cc5)CC4)CC3)cc1)=N[C@@H](C)c1nnc(C)n1-2` [III-150], the GI50 in test [1] was less than 50 nM; in test [2] it was 500 to 2500 nM; in test [3] it was 50 to 500 nM.

Regarding `Cc1sc2c(c1C)C(c1ccc(N3CC(CC4CCN(CC5(F)CN(c6ccc([C@@H]7c8ccc(O)cc8CC[C@@H]7c7ccccc7)cc6)C5)CC4)C3)cc1)=N[C@@H](C)c1nnc(C)n1-2` [III-151], the values for the GI50 in test [1], in test [2] and in test [3] were less than 50 nM, greater than 2500 nM and less than 50 nM, respectively.

Regarding `Cc1sc2c(c1C)C(c1ccc(N3CCC(O)(CC4CCN(c5ccc([C@@H]6c7ccc(O)cc7CC[C@@H]6c6ccccc6)cc5)CC4)CC3)cc1)=N[C@@H](C)c1nnc(C)n1-2` [III-152], the GI50 in test [1] is less than 50 nM; in test [2], 500 to 2500 nM; in test [3], 50 to 500 nM.

Take `Cc1sc2c(c1C)C(c1ccc(N3CCC(CC4(O)CCN(c5ccc([C@@H]6c7ccc(O)cc7CC[C@@H]6c6ccccc6)cc5)CC4)CC3)cc1)=N[C@@H](C)c1nnc(C)n1-2` [III-153]: the GI50 in test [1] was less than 50 nM; in test [2], 500 to 2500 nM; in test [3] it was 50 to 500 nM.

Consider `Cc1sc2c(c1C)C(c1ccc(N3CCC(O)(CC4CCN(c5ccc([C@@H]6c7ccc(O)cc7CC[C@@H]6c6ccccc6)cc5)CC4)CC3)cc1)=N[C@H](Cc1ncco1)c1nnc(C)n1-2` [III-154], for which the GI50 is greater than 2500 nM in test [1], greater than 2500 nM in test [2] and 50 to 500 nM in test [3].

`Cc1sc2c(c1C)C(c1ccc(N3CCC(O)(CC4CCN(c5ccc([C@@H]6c7ccc(O)cc7CC[C@@H]6c6ccccc6)cc5)CC4)CC3)cc1)=N[C@@H](Cc1ncco1)c1nnc(C)n1-2` [III-155]: the GI50 in test [1] is less than 50 nM; in test [2] it was 50 to 500 nM; in test [3] it was less than 50 nM.

On to `Cc1sc2c(c1C)C(c1ccc(C3CN(C(=O)C4CCN(c5ccc([C@@H]6c7ccc(O)cc7CC[C@@H]6c6ccccc6)cc5)CC4)C3)cc1)=N[C@@H](Cc1ncco1)c1nnc(C)n1-2` [III-156], for which the GI50 in test [1], in test [2] and in test [3] was less than 50 nM in each case.

With `Cc1sc2c(c1C)C(c1ccc(N3CC(F)(CN4CCC(CC5CN(c6ccc([C@@H]7c8ccc(O)cc8CC[C@@H]7c7ccccc7)cc6)C5)CC4)C3)cc1)=N[C@@H](C)c1nnc(C)n1-2` [III-157], the GI50 in test [1] was less than 50 nM; in test [2] it was 500 to 2500 nM; in test [3] it was 50 to 500 nM.

With `Cc1sc2c(c1C)C(c1ccc(N3CC(CC4(O)CCN(c5ccc([C@@H]6c7ccc(O)cc7CC[C@@H]6c6ccccc6)cc5)CC4)C3)cc1)=N[C@@H](C)c1nnc(C)n1-2` [III-158], the 50% growth inhibitory concentration (GI50) in test [1] is less than 50 nM; in test [2] it was 50 to 500 nM; in test [3], less than 50 nM.

As to `Cc1sc2c(c1C)C(c1ccc(N3CC(O)(CC4CCN(c5ccc([C@@H]6c7ccc(O)cc7CC[C@@H]6c6ccccc6)cc5)CC4)C3)cc1)=N[C@@H](C)c1nnc(C)n1-2` [III-159], the GI50 in test [1], in test [2] and in test [3] was less than 50 nM in each case.

Consider `Cc1sc2c(c1C)C(c1ccc(N3CC(CN4CCN(C(=O)C5CN(c6ccc([C@@H]7c8ccc(O)cc8CC[C@@H]7c7ccccc7)cc6)C5)CC4)C3)cc1)=N[C@@H](C)c1nnc(C)n1-2` [III-160], for which the concentration for 50% growth inhibition (GI50) was less than 50 nM in test [1], 50 to 500 nM in test [2] and less than 50 nM in test [3].

In the case of `Cc1sc2c(c1C)C(c1ccc(N3CC4(CCN(CC5CCN(c6ccc([C@@H]7c8ccc(O)cc8CC[C@@H]7c7ccccc7)cc6)CC5)CC4)C3)cc1)=N[C@@H](Cc1ncco1)c1nnc(C)n1-2` [III-161], the GI50 in test [1] is less than 50 nM; in test [2], 50 to 500 nM; in test [3] it was less than 50 nM.

Take `Cc1sc2c(c1C)C(c1ccc(N3CC(CN4CCN(CC5CN(c6ccc([C@@H]7c8ccc(O)cc8CC[C@@H]7c7ccccc7)cc6)C5)CC4)C3)cc1)=N[C@@H](Cc1ncco1)c1nnc(C)n1-2` [III-162]: the results for the GI50 in test [1], in test [2] and in test [3] were less than 50 nM, 50 to 500 nM and less than 50 nM, respectively.

For the compound `Cc1sc2c(c1C)C(c1ccc(N3CCC(CC4(O)CCN(c5ccc([C@@H]6c7ccc(O)cc7CC[C@@H]6c6ccccc6)cc5)CC4)CC3)cc1)=N[C@H](Cc1ncco1)c1nnc(C)n1-2` [III-163], the values for the GI50 in test [1], in test [2] and in test [3] were greater than 2500 nM, greater than 2500 nM and 50 to 500 nM, respectively.
